Source: US12377110B2, “Fospropofol methods and compositions” (Epalex Corporation, priority 2019, dated 2025)

Experiments:
Sprague-Dawley rats [1] = experiment: Study No. 15-3 (GLP): 14-day once daily oral gavage toxicity of fospropofol disodium; format: in vivo
Experimental: (§1) The purpose of Study No. 15-3 (GLP) was to determine the potential toxicity of fospropofol in Sprague-Dawley rats when administered once daily by oral gavage for 14 days. […] The cause of death for the three 250 mg/kg/day group main study females found dead could not be determined, but was considered related to the pharmacodynamic effects of fospropofol, based on the time of death relative to the time of close administration, and the clinical signs recorded before death. Clinical observations during the closing period for these animals included labored breathing, prostrate, splayed hindlimbs, uncoordinated movement, decreased activity, and eyes closed.
(§2) Pivotal GLP 14-day repeat-close toxicity studies with 7-day recovery periods were conducted in Sprague-Dawley rats (Study No. 15-3) and Beagle dogs (Study No. 15-4). […] The cause of death for these animals was considered to be related to the known pharmacodynamic effects of high doses of fospropofol, based on the time of death relative to the time of close administration, and the clinical signs recorded before death which included: labored breathing, prostrate, splayed hindlimbs, uncoordinated movement, decreased activity, and eyes closed. […] The NOAEL was determined to be 100 mg/kg/day (600 mg/m^2/day) in male and female Sprague-Dawley rats.

[2] = as above; format: in vivo, Sprague-Dawley rats; conditions: both sexes, rat, in vivo; 14 days once daily oral gavage, Sprague-Dawley rats
Experimental: as §1, §2

[3] = system: adult women and men experiencing moderate to severe migraine headache; experiment: Study A17: safety-tolerability (TEAEs); conditions: N = 18, 800 mg oral
Experimental: The study is planned to complete approximately 85 subjects. • Enrolled subjects will be asked to come to the study site for treatment when they experience a qualifying migraine headache. Dosing must occur within 4 hours after onset of the migraine symptoms. If treatment at the study site is not feasible or practicable within 4 hours after onset of migraine symptoms, subjects should use their usual medication for that headache and attempt to visit the clinic for treatment as soon as possible (within 4 hours) after onset of their next migraine headache. Dosing must occur within 60 days after enrollment (see Post-enrollment Period below). • At clinic check-in for treatment, study personnel will verify eligibility for closing regarding the criteria for a qualifying headache and adherence to post-enrollment study restrictions (see Eligibility for Dosing below). • Treatment will consist of a single oral dose of fospropofol disodium. […] Because the prevalence of migraine headaches is higher in women than in men, efforts will be made to enroll at least 50% women. • Subjects must meet the general inclusion and exclusion criteria listed below (Inclusion Criteria and Exclusion Criteria) at screening to be enrolled in the study. To be eligible for fospropofol disodium treatment after onset of a migraine headache, enrolled subjects must meet criteria specific to the presenting headache at clinic check-in (see Qualifying Headache below) and adhere to study restrictions specific to the period between enrollment and clinic check-in (see Post-enrollment Restrictions below). • Inclusion Criteria Subjects must meet all of the following criteria at screening to be enrolled in the study: • 1. Written informed consent approved by the Institutional Review Board (IRB) given before any study-related procedures are performed • 2. […] Complete abstinence alone can be used as a method of contraception. • 6. […] Able to comprehend the nature of the study, capable of giving written informed consent, and able to communicate effectively with clinic staff (as assessed by the investigator) • 8. Available to volunteer for the entire study duration and willing to adhere to all protocol requirements, including the post-enrollment restrictions (see Post-enrollment Restrictions below) • 9. Agrees not to post any information related to the study on any website or social media site (e.g., Facebook, Twitter, LinkedIn, Google+, etc.) until the entire trial has been completed • 10. Willing to forgo rescue medicine for at least 2 hours after initiation of treatment with study drug (see In-Clinic Rescue Medicine) • Exclusion Criteria Subjects to whom any of the following criteria apply at screening will be excluded: • 1. History of hemiplegic migraine (at any time in the past). • 2. History of headaches of any type occurring on ≥15 days/month during any of the 3 months prior to screening. • 3.

Sprague-Dawley rats [4] = experiment: Study No. 15-1 (non-GLP): MTD and 7-day once daily oral gavage toxicity of fospropofol disodium; format: in vivo
Excerpt: (§3) The purpose of Study No. 15-1 (non-GLP) was to determine the maximum tolerated close (MTD) of fospropofol when administered by oral gavage to Sprague-Dawley rats (Phase 1) and to evaluate the potential toxicity of fospropofol in Sprague-Dawley rats when administered once daily by oral gavage for 7 days (Phase 2).

[5] = as above; format: in vivo, Sprague-Dawley rats; conditions: rat, in vivo; oral gavage, Sprague-Dawley rats
Excerpt: as §3

## CC(C)c1cccc(C(C)C)c1OCOP(=O)([O-])O.[Na+] [fospropofol disodium]
Sprague-Dawley rats [1]; 0, 50, 100, and 250 mg/kg/day for 14 consecutive days
  Mortality: treatment-related mortalities at 250 mg/kg/day
Sprague-Dawley rats [1]; 250 mg/kg/day
  Body weight gain: reduced body weight gain
  Prothrombin time: transient increase in prothrombin time
Sprague-Dawley rats [1]; 250 mg/kg/day main study females found dead
  Gross observations and microscopic findings: no treatment-related gross observations or microscopic findings
Sprague-Dawley rats [1]; 14 days once daily oral gavage, Sprague-Dawley rats
  NOAEL: 600 mg/m^2/day
Sprague-Dawley rats [1]; high dose level (250 mg/kg/day), 14 days
  Mortalities: 4
Sprague-Dawley rats [1]; up to 250 mg/kg/day
  Histopathology, all tissues including GIT-related: no treatment-related histopathology findings
[2]
  NOAEL at 14 days: 100 mg/kg/day
[3]; Mild
  Number of TEAEs, E, by severity: 5
  Number of subjects with at least 1 TEAE, by severity: 3
[3]; Moderate
  Number of TEAEs, E, by severity: 3
  Number of subjects with at least 1 TEAE, by severity: 3^1
[3]
  Dry mouth: number of TEAEs, E: 1
  Dry mouth: subjects with TEAE, %: 7.7%
  Dysgeusia: number of TEAEs, E: 1
  Dysgeusia: subjects with TEAE, %: 5.6%
  Gastrointestinal disorders: number of TEAEs, E: 2
  Gastrointestinal disorders: subjects with TEAE, %: 11.1%
  Genital paraesthesia: number of TEAEs, E: 2
  Genital paraesthesia: subjects with TEAE, %: 5.6%
  Nausea: number of TEAEs, E: 1
  Nausea: subjects with TEAE, %: 7.7%
  Nervous system disorders: number of TEAEs, E: 4
  Nervous system disorders: subjects with TEAE, %: 16.7%
  Number of TEAEs, E: 9
  Paraesthesia: number of TEAEs, E: 2
  Paraesthesia: subjects with TEAE, %: 11.1%
  Pruritus: number of TEAEs, E: 1
  Pruritus: subjects with TEAE, %: 5.6%
  Reproductive system and breast disorders: number of TEAEs, E: 2
  Reproductive system and breast disorders: subjects with TEAE, %: 5.6%
  Skin and subcutaneous tissue disorders: number of TEAEs, E: 1
  Skin and subcutaneous tissue disorders: subjects with TEAE, %: 5.6%
  Somnolence: number of TEAEs, E: 1
  Somnolence: subjects with TEAE, %: 5.6%
  Subjects with at least 1 TEAE, %: 33.3%
[3]; Possibly related
  Relation of TEAEs to study drug: Dry mouth: 0
  Relation of TEAEs to study drug: Dysgeusia: 0
  Relation of TEAEs to study drug: Gastrointestinal disorders: 1
  Relation of TEAEs to study drug: Genital paraesthesia: 0
  Relation of TEAEs to study drug: Nausea: 1
  Relation of TEAEs to study drug: Nervous system disorders: 0
  Relation of TEAEs to study drug: Number of TEAEs, E: 2
  Relation of TEAEs to study drug: Paraesthesia: 0
  Relation of TEAEs to study drug: Pruritus: 1
  Relation of TEAEs to study drug: Reproductive system and breast disorders: 0
  Relation of TEAEs to study drug: Skin and subcutaneous tissue disorders: 1
  Relation of TEAEs to study drug: Somnolence: 0
[3]; Probably related
  Relation of TEAEs to study drug: Dry mouth: 1
  Relation of TEAEs to study drug: Dysgeusia: 1
  Relation of TEAEs to study drug: Gastrointestinal disorders: 1
  Relation of TEAEs to study drug: Genital paraesthesia: 2
  Relation of TEAEs to study drug: Nervous system disorders: 4
  Relation of TEAEs to study drug: Number of TEAEs, E: 7
  Relation of TEAEs to study drug: Paraesthesia: 2
  Relation of TEAEs to study drug: Pruritus: 0
  Relation of TEAEs to study drug: Reproductive system and breast disorders: 2
  Relation of TEAEs to study drug: Skin and subcutaneous tissue disorders: 0
  Relation of TEAEs to study drug: Somnolence: 1
[3]; Severe
  Number of TEAEs, E, by severity: 1
  Number of subjects with at least 1 TEAE, by severity: 1^1
Sprague-Dawley rats [4]; 150 mg/kg/day, Day 7, approximately 30 minutes postdose
  Mortality: one 150 mg/kg/day TK female was found dead
Sprague-Dawley rats [4]; oral gavage, Sprague-Dawley rats
  MTD: 1500 mg/m^2/day
Sprague-Dawley rats [4]; oral gavage, single fospropofol doses up to 300 mg/kg or 150 and 250 mg/kg/day once daily for 7 days
  Tolerability: well tolerated at all closes
[5]
  MTD at 7 days: 250 mg/kg/day
